Measurements taken from PMC3784064, “A phase I/II study of carfilzomib 2–10-min infusion in patients with advanced solid tumors” (Cancer Chemotherapy and Pharmacology, 2013).
Read-outs that look alike come from different tables or passages of the source.

What was measured:
[1] = test system: patients with advanced solid tumors; assay: Safety: adverse events graded by NCI CTCAE v3.0; format: in vivo
Excerpt: (§1) The phase I dose-escalation portion of the study followed the standard 3 + 3 design. Patients were enrolled at two sites in sequential cohorts of 3–6 patients each to establish the MTD. The MTD was defined as the highest dose up to the MPD at which […] of six patients experienced treatment-related dose-limiting toxicities (DLT) during the first cycle. DLTs were defined as treatment-related ≥grade 2 neuropathy with pain, ≥grade 3 non-hematologic toxicity, grade 4 neutropenia or thrombocytopenia lasting 7 or more days, or thrombocytopenia with bleeding. Toxicity was graded according to NCI CTCAE v3.0 [19].
(§2) All patients who received at least one dose of study treatment were evaluable for the safety analysis. After the initiation of carfilzomib, adverse events (AEs) were evaluated at each visit. Patients completed a comprehensive neurologic evaluation and radiographic assessment of tumor burden using computerized tomography (CT) at baseline and every 8 weeks for the first 24 weeks, then every 12 weeks thereafter or at treatment discontinuation. Patients who received at least one cycle of treatment and had both baseline and post-baseline disease assessments were evaluable for efficacy. Treatment response was assessed according to RECIST 1.0 [18]. Patients with stable disease (SD) or an objective response (CR or PR) after two cycles continued treatment until disease progression or unacceptable toxicity.

[2] = test system: patients with advanced solid tumors; assay: Phase I dose escalation (3 + 3): DLT and MTD determination; format: in vivo
Procedure: Carfilzomib (Onyx Pharmaceuticals, Inc, South San Francisco, CA) was administered by intravenous infusion over 2–10 min on days 1, 2, 8, 9, 15, and 16 of a 28-day cycle. For the phase I dose-escalation portion, the starting dose in all cohorts for days 1 and 2 of cycle 1 was 20 mg/m^2, based on the tolerated dose identified in hematologic malignancies. On all remaining cycle 1 dosing days (days 8, 9, 15, and 16) and in all subsequent cycles, carfilzomib was administered at a dose of 20 mg/m^2 in cohort 1 (20/20 mg/m^2), 27 mg/m^2 in cohort 2 (20/27 mg/m^2), and 36 mg/m^2 in cohort 3 (20/36 mg/m^2). Stepped-up dosing in cycle 1 and dexamethasone premedication were adopted to abrogate fever, chills and/or rigors, and dyspnea, all of which were […] observed during initial therapy in MM trials. Dexamethasone 4 mg (intravenous or oral) was administered prior to each carfilzomib dose for the first cycle and during subsequent cycles when indicated. Upon completion of 12 treatment cycles, patients had the option of enrolling in an open-label extension study, PX-171-010 (NCT00884312).
as §1

[3] = test system: proteasome chymotrypsin-like (CT-L) activity in whole blood and PBMCs; assay: Pharmacodynamics: proteasome CT-L activity, fluorogenic LLVY-AMC substrate assay; format: in vivo, human; conditions: for Median proteasome inhibition / proteasome inhibition, range: day 1 of cycle 2
Procedure: Whole blood was collected on day 1 of the first two cycles prior to and 1 h after infusion for measurement of proteasome activity in whole blood and peripheral blood mononuclear cells (PBMCs). CT-L activity was assessed using a fluorogenic substrate assay with succinyl–Leu–Leu–Val–Tyr–AMC (LLVY) as previously described.

advanced solid tumors = assay: Antitumor activity, treatment response by RECIST 1.0; format: in vivo, human
Procedure: The primary objective of the phase I dose-escalation portion of the study was to determine the maximum tolerated dose (MTD) of carfilzomib up to a maximum planned dose (MPD) of 20/36 mg/m^2. The primary objective of the expansion (various tumor types) and phase II tumor-specific portions was to determine the disease control rate [DCR = complete response (CR) + partial response (PR) + stable disease (SD)] as defined by RECIST 1.0 [18] after four cycles of treatment at the MTD or MPD. Secondary objectives included pharmacokinetics (PK) and pharmacodynamics (PDn) of carfilzomib.
Once dose escalation was completed, an additional 11 evaluable patients with assorted tumor types could enroll in the expansion cohort to receive carfilzomib at the MTD/MPD. In the phase II tumor-specific portion of the study, cohorts of patients with NSCLC, SCLC, ovarian cancer, and renal cancer were to be treated at the MTD/MPD utilizing a Simon two-stage design. Tumor types included in the phase II tumor-specific cohorts were selected based on efficacy results from the phase I dose-escalation portion and preclinical data.
as §2
Continuous and categorical data were summarized with descriptive statistics or frequencies and percentages, respectively. For the phase II tumor-specific portion, the Simon two-stage sample size calculation applied a null hypothesis objective response rate (ORR = CR + PR) of 2 % and an alternative hypothesis ORR of 15 %, with the type I error at 5 % and a power of 0.8. For stage 1, 11 evaluable patients were to be enrolled in each of the four solid tumor cohorts. […] Because there were multiple study sites, over enrollment was permitted.

[4] = human, in vivo, 20 mg/m2
Procedure: (§3) Serial blood samples were collected on days 1 and 16 of cycle 1 and day 16 of cycle 2 as follows: predose, immediately post-dose, and then at 5, 15, and 30 min, and 1, 2, and 4 h post-dose. Plasma samples for PK studies were assayed using validated liquid chromatography/mass spectrometry with a lower limit of detection of 0.10 ng/ml [17].
(§4) Pharmacokinetic parameters were estimated by non-compartmental analysis using WinNonlin Enterprise Version 5.2 (Pharsight Inc., Mountain View, CA).

[5] = test system: human solid tumor xenograft model; design: method as in PMID 17616698; conditions: consecutive-day dosing; cited from earlier work
solid tumor cell lines = test system: solid tumor cell lines; design: method as in PMID 17616698; conditions: 1-h pulse, replicating clinical pharmacokinetics; cited from earlier work
proteasome in PBMCs = test system: proteasome in PBMCs; design: method as in PMID 22761464; conditions: 20/27 mg/m^2, patients with hematologic malignancies; cited from earlier work
clinical = conditions: human, in vivo
Procedure: as §3, §4

patients with MM = conditions: human, in vivo, iv; cited from earlier work
[6] = 20 mg/m^2, one hour after administration
[7] = 27 mg/m^2, one hour after administration
[8] = 36 mg/m^2, one hour after administration

## CC(C)C[C@H](NC(=O)[C@H](CCc1ccccc1)NC(=O)CN1CCOCC1)C(=O)N[C@@H](Cc1ccccc1)C(=O)N[C@@H](CC(C)C)C(=O)[C@@]1(C)CO1 [carfilzomib]
[1]; human, in vivo
  AE: fatigue: 35.7%
  AE: headache: 42.9%
  AE: hypokalemia: 35.7%
  patients who discontinued due to AEs: 14.3%
  patients who discontinued due to an AE: 10.8%
  patients who missed at least one carfilzomib dose due to AEs: 29.2%
  patients with carfilzomib dose reduced due to AEs of elevated blood creatinine/decreased CrCl: 12.3%
[1]; in vivo
  carfilzomib dose reduced due to AEs: No patients
[1]; on study or within 30 days of ending treatment
  deaths considered related to carfilzomib: No deaths
[2]; human, in vivo, iv, 28 days
  MPD recommended for the expansion and phase II tumor-specific portions: 20/36
[2]; in vivo
  dose-limiting toxicities (DLT): no DLTs
[2]; phase I dose-escalation portion, up to the MPD of 20/36 mg/m^2
  maximum tolerated dose (MTD): No MTD was identified
[3]; [6]
  Median proteasome inhibition: 83.4%
  proteasome inhibition, range: 82.9–85.5%
[3]; [7]
  Median proteasome inhibition: 91.6%
  proteasome inhibition, range: 79.0–93.2%
[3]; [8]
  Median proteasome inhibition: 88.6%
  proteasome inhibition, range: 54.7–99.4%
[3]; PBMCs
  recovery of proteasome activity by the start of the second cycle: there was recovery
[3]; whole blood
  recovery of constitutive proteasome activity between cycles: Minimal recovery
[3]; whole blood and PBMCs, one hour after administration on day 1 of cycle 2, all doses
  inhibition of proteasome CT-L activity: at least 80%
Advanced solid tumors; expansion and phase II patients, 29/51, 20/36 mg/m^2
  PD as best response: 56.9%
Advanced solid tumors; expansion and phase II tumor-specific cohorts, 20/36 mg/m^2
  patients with SD for 6 months or longer: four
Advanced solid tumors; expansion and phase II tumor-specific cohorts, 22 of 51 evaluable patients, 20/36 mg/m^2
  patients with SD after two cycles: 43.1%
Advanced solid tumors; expansion and phase II tumor-specific cohorts, 51 evaluable patients, 20/36 mg/m^2, after four cycles or over the study period
  PR or better: No patients
Advanced solid tumors; one patient with renal cancer, 20/36 mg/m^2, after five cycles
  reduction in tumor burden: > 80%
Advanced solid tumors; phase I dose-escalation portion, 12 evaluable patients
  progressive disease (PD): eight
Advanced solid tumors; phase I dose-escalation portion, 20/36 mg/m^2, 12 evaluable patients
  confirmed partial response (PR): two
[4]
  AUClast: 269 ± 61.7 ng·h/mL
  CL: 136 ± 52.8 L/h
  Cmax: 3410 ± 51.5 ng/mL
[5]
  antitumor activity compared with bortezomib or carfilzomib dosed on days 1 and 4: more effective antitumor activity
Solid tumor cell lines
  potency at killing solid tumor cell lines compared with bortezomib: more potent than bortezomib
Proteasome in PBMCs
  proteasome inhibition: > 90%
clinical; 20 mg/m2, AUClast
  AUC(0-t): 251 ± 92 ng·h/mL
clinical; 20 mg/m2, CL
  clearance: 4380 mL/min
clinical; 20 mg/m2, Cmax
  Cmax: 2390 ± 104 ng/mL
clinical; 27 mg/m2, AUClast
  AUC(0-t): 379 ± 24.8 ng·h/mL
clinical; 27 mg/m2, CL
  clearance: 2500 mL/min
clinical; 27 mg/m2, Cmax
  Cmax: 4230 ± 48.8 ng/mL
clinical; 27 mg/m2, V ss
  Vd: 11.1 ± 4.45 L
clinical; 27 mg/m2, t 1/2
  half-life: 21 min
clinical; 36 mg/m2, AUClast
  AUC(0-t): 594 ± 52.5 ng·h/mL
clinical; 36 mg/m2, CL
  clearance: 1930 mL/min
clinical; 36 mg/m2, Cmax
  Cmax: 5718 ± 46.5 ng/mL
clinical; 36 mg/m2, V ss
  Vd: 9.33 ± 4.8 L
clinical; 36 mg/m2, t 1/2
  half-life: 52.2 min
clinical; iv, half-life
  half-life: < 60 min
Patients with MM
  tolerable dose: 20/27
